Data taken from patent US20020049199A1, “N-linked carbamates and ureas of heterocyclic thioesters” (priority 1996, published 2002).
pEC50: −log10 of the molar value. Like-named read-outs stand apart in the source and are kept apart here.

Columns and labels:
[1] = target: FKBP (Homo sapiens, UniProt P62942); assay: Ki test procedure: inhibition of peptidyl-prolyl isomerase (rotamase) activity, chymotrypsin-coupled assay; format: biochemical; conditions: apparent Ki
Excerpt: Inhibition of the peptidyl-prolyl isomerase (rotamase) activity of the inventive compounds can be evaluated by known methods described in the literature (Harding, et al., Nature, 1989, 341:758-760; Holt et al. J. Am. Chem. Soc., 115:9923-9938). The cis-trans isomerization of an alanine-proline bond in a model substrate, N-succinyl-Ala-Ala-Pro-Phe-p-nitroanilide, is monitored spectrophotometrically in a chymotrypsin-coupled assay, which releases para-nitroanilide from the trans form of the substrate. The inhibition of this reaction caused by the addition of different concentrations of inhibitor is determined, and the data is analyzed as a change in first-order rate constant as a function of inhibitor concentration to yield the apparent Ki values.
In a plastic cuvette are added […] of ice cold assay buffer (25 mM HEPES, pH 7.8, 100 mM NaCl), […] of FKBP (2.5 mM in 10 mM Tris-Cl pH 7.5, 100 mM NaCl, 1 mM dithiothreitol), 25 mL of chymotrypsin (50 mg/ml in 1 mM HCl) and […] of test compound at various concentrations in dimethyl sulfoxide. The reaction is initiated by the addition of 5 mL of substrate (succinyl-Ala-Phe-Pro-Phe-para-nitroanilide, 5 mg/mL in 2.35 mM LiCl in trifluoroethanol).
The absorbance at 390 nm versus time is monitored for 90 seconds using a spectrophotometer and the rate constants are determined from the absorbance versus time data files.
The data for these experiments for representative compounds are presented in Table II under the column “Ki”.

[2] = system: chick dorsal root ganglia; assay: Chick dorsal root ganglion cultures and neurite outgrowth; format: cell-based; conditions: neurite outgrowth, 48 hours after drug treatment, Table II (b), ranked potency, read-out: ED50, nMa
Method: Dorsal root ganglia were dissected from chick embryos of ten day gestation. Whole ganglion explants were cultured on thin layer Matrigel-coated 12 well plates with Liebovitz L15 plus high glucose media supplemented with 2 mM glutamine and 10% fetal calf serum, and also containing 10 μM cytosine β-D arabinofuranoside (Ara C) at 37° C. in an environment containing 5% CO2. Twenty-four hours later, the DRGs were treated with various immunophilin ligands. Forty-eight hours after drug treatment, the ganglia were visualized under phase contrast or Hoffman Modulation contrast with a Zeiss Axiovert inverted microscope. Photomicrographs of the explants were made, and neurite outgrowth was quantitated. Neurites longer than the DRG diameter were counted as positive, with total number of neurites quantitated per each experimental condition. Three to four DRGs are cultured per well, and each treatment was performed in duplicate.
The data for these experiments for representative compounds are presented in Table II under the column “ED50”.

FKBP, sequence (P62942 whole entry): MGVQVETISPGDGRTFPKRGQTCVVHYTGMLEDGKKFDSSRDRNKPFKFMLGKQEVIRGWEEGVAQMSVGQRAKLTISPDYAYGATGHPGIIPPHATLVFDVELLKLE

Row | Compound | Ki ([1]; Table II (c), numerical) | pEC50 [2] | Ki ([1]; Table II (a), ranked potency) | also measured
1 | 3,3-Diphenylpropyl (2S)-1-[(1,1,3,3-tetramethylbutyl)carbamoyl]-2-pyrrolidinecarbothioate [Compound 29] | 5150 nM | 6.70 to 7.29 | – | –
2 | 3,3-Diphenylpropyl (2S)-1-[(2,4-dimethoxyphenyl)carbamoyl]-2-pyrrolidinecarbothioate [Compound 33] | – | – | > 500 nM | –
3 | 3-(2,3,5-Trimethylphenyl)propyl 1-(1-adamantylcarbamoyl)-2-pyrrolidinecarbothioate [Compound 19] | – | 6.70 to 7.29 | 201 to 500 nM | –
4 | 3-(2,3,5-Trimethylphenyl)propyl 1-(cyclohexylcarbamoyl)-2-pyrrolidinecarbothioate [Compound 20] | – | 7.30 to 9.00 | 51 to 200 nM | –
5 | 3-(2-Fluorophenyl)propyl (2S)-1-(1-adamantylcarbamoyl)-2-pyrrolidinecarbothioate [Compound 22] | – | > 9.00 | 1 to 50 nM | –
6 | 3-(2-Fluorophenyl)propyl (2S)-1-(cyclohexylcarbamoyl)-2-pyrrolidinecarbothioate [Compound 23] | – | 7.30 to 9.00 | 1 to 50 nM | –
7 | 3-(3,4,5-Trimethoxyphenyl)propyl (2S)-1-(benzylcarbamoyl)-2-pyrrolidinecarbothioate [Compound 40] | 82 nM | – | – | –
8 | 3-(3,4,5-Trimethoxyphenyl)propyl (2S)-1-(hexylcarbamoyl)-2-pyrrolidinecarbothioate [Compound 39] | 31 nM | – | – | –
9 | 3-(3,5-Dimethoxyphenyl)propyl (2S)-1-{[(1S)-1-(1-naphthyl)ethyl]-carbamoyl}-2-pyrrolidinecarbothioate [Compound 28] | 8090 nM | > 9.00 | – | –
10 | 3-(3,5-Dimethoxyphenyl)propyl (2S)-1-{[(1S,2R)-2-phenyl-cyclopropyl]carbamoyl]-2-pyrrolidinecarbothioate [Compound 34] | – | – | > 500 nM | –
11 | 3-(3-Fluorophenyl)propyl (2S)-1-(Cyclohexylcarbamoyl)-2-pyrrolidinecarbothioate [Compound 21] | – | > 9.00 | 1 to 50 nM | –
12 | 3-(4-Methylphenyl)propyl (2S)-1-(1-adamantylcarbamoyl)-2-pyrrolidinecarbothioate [Compound 25] | 209 nM | 7.30 to 9.00 | – | –
13 | 3-(4-Methylphenyl)propyl (2S)-1-(cyclohexylcarbamoyl)-2-pyrrolidinecarbothioate [Compound 24] | 605 nM | 7.30 to 9.00 | – | –
14 | 3-(4-Methylphenyl)propyl (2S)-1-(tert-butylcarbamoyl)-2-pyrrolidinecarbothioate [Compound 26] | 739 nM | > 9.00 | – | –
15 | 3-Cyclohexylpropyl (2S)-1-(hexylcarbamoyl)-2-pyrrolidinecarbothioate [Compound 32] | – | – | > 500 nM | –
16 | 3-Cyclohexylpropyl (2S)-1-[(2,6-diisopropylphenyl)carbamoyl]-2-pyrrolidinecarbothioate [Compound 31] | – | – | > 500 nM | –
17 | 3-Phenylpropyl (2S)-1-(1-adamantylcarbamoyl)-2-pyrrolidinecarbothioate [Compound 36] | – | – | 201 to 500 nM | –
18 | 3-Phenylpropyl (2S)-1-(1-cyclohexylcarbamoyl)-2-pyrrolidinecarbothioate [Compound 17] | – | 6.70 to 7.29 | – | Ki ([1]; Table II (a), ranked potency, listed as 4): 51 to 200 nM
19 | 3-Phenylpropyl (2S)-1-(1-cyclohexylcarbamoyl)-2-pyrrolidinecarbothioate [Compound 37] | – | – | – | Ki ([1]; Table II (a), ranked potency, listed as 23): > 500 nM
20 | 3-Phenylpropyl (2S)-1-(1-pyrrolidinylcarbamoyl)-2-pyrrolidinecarbothioate [Compound 42] | 525 nM | – | – | –
21 | 3-Phenylpropyl (2S)-1-(dimethylcarbamoyl)-2-pyrrolidinecarbothioate [Compound 41] | 722 nM | – | – | –
22 | 3-Phenylpropyl (2S)-1-[(2,4-Dimethoxyphenyl)carbamoyl]-2-pyrrolidinecarbothioate [Compound 35] | – | – | > 500 nM | Ki ([1]; Table II (c), numerical, listed as 21): 795 nM
23 | CCC(C)CNC(=O)N1CCC[C@H]1C(=O)SCCCc1cccnc1 (stereo partly drawn) [Compound 1, 3-(3-Pyridyl)-1-propylmercaptyl 2S-1-[(2-methylbutyl)carbamoyl]pyrrolidine-2-carboxylate] | – | – | 1 to 50 nM | pEC50 ([2]; Gallus gallus): > 9.00
24 | CCC(C)(C)NC(=O)N1CCC[C@H]1C(=O)SCCCc1cccnc1 [Compound 2] | – | – | 51 to 200 nM | pEC50 ([2]; Gallus gallus): 7.30 to 9.00
25 | O=C(SCCCc1cccnc1)[C@@H]1CCCN1C(=S)NC1CCCCC1 [Compound 7, 3-(3-pyridyl)-1-propylmercaptyl 2S-1-[(cyclohexyl)thiocarbamoyl]-pyrrolidine-2-carboxylate] | – | 7.30 to 9.00 | 51 to 200 nM | –
26 | O=C(SCCCc1ccccc1Cl)[C@@H]1CCCN1C(=O)NC1CCCCC1 [Compound 27] | 1490 nM | 7.30 to 9.00 | – | –
27 | O=C(SCCCc1ccccc1)[C@@H]1CCCN1C(=S)NC12CC3CC(CC(C3)C1)C2 [Compound 38] | 659 nM | – | – | –
28 | O=C(SCCCc1ccccc1)[C@@H]1CCCN1C(=O)N1CCOCC1 [Compound 43, 3-Phenylpropyl (2S)-1-(morphilinocarbamoyl)-2-pyrrolidinecarbothioate] | 3740 nM | – | – | –
29 | Phenethyl (2S)-N-(cyclohexylcarbamoyl)-2-pyrrolidinecarbothioate [Compound 18] | – | 7.30 to 9.00 | 51 to 200 nM | –
